Assay results from ChEMBL document CHEMBL5370533 (Eur J Med Chem, 2023).
The source made the active and inactive calls. The rule behind the calls is not given here.

What was measured:
[1] = test system: MV4-11; assay: Antiproliferative activity against human MV4-11 cells harboring FLT3 ITD mutant assessed as inhibition of cell growth incubated for 72 hrs by CellTiter-Glo luminescent assay; type: functional, cell-based; conditions: MV4-11, 72 h
[2] = test system: ACHN; assay: Antiproliferative activity against human ACHN cells assessed as inhibition of cell growth; type: functional
[3] = test system: KM12; assay: Antiproliferative activity against human KM12 cells assessed as inhibition of cell growth; type: functional
[4] = biological target: Mast/stem cell growth factor receptor Kit (Homo sapiens) (UniProt P10721); assay: Inhibition of c-Kit (unknown origin)
Mast/stem cell growth factor receptor Kit (Homo sapiens), sequence (P10721 whole entry): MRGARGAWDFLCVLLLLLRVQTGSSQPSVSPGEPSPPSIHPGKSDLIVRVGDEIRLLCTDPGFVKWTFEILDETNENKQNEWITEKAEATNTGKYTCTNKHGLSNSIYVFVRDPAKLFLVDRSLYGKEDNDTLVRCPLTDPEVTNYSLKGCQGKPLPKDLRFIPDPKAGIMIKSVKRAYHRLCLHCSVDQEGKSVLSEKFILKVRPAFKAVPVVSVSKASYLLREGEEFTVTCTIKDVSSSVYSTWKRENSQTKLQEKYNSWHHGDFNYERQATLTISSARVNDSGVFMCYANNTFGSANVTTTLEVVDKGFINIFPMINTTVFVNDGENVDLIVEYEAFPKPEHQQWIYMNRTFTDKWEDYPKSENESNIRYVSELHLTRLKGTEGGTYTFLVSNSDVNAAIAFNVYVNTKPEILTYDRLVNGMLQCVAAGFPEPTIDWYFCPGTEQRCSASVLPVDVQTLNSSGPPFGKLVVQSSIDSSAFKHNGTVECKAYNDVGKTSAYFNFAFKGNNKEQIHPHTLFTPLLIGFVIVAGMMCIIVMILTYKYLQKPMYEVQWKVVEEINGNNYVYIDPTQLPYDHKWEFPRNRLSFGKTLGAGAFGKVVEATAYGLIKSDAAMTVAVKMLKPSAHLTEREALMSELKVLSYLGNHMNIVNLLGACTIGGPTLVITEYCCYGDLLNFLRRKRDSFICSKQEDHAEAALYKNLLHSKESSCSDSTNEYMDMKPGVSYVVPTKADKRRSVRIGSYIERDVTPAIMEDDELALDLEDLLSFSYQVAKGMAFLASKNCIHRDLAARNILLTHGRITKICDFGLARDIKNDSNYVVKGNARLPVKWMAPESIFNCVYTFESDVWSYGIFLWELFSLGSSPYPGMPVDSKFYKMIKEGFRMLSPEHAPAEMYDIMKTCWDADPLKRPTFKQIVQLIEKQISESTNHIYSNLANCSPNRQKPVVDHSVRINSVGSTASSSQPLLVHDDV

[5] = test system: THP-1; assay: Antiproliferative activity against human THP-1 cells expressing wild type FLT3 assessed as inhibition of cell growth; type: functional, cell-based
[6] = biological target: CDK7/Cyclin H/MNAT1 (Homo sapiens) (UniProt P51946+P50613+P51948); assay: Inhibition of CDK7/Cyclin H/MAT1 (unknown origin); type: protein-complex assay; conditions: concentration not given here
[7] = AUC (0 to t) in Beagle dog at […], po; type: ADME, organism-based, Canis lupus familiaris; parameters: dose 1.5 mg/kg, route po; conditions: in vivo
[8] = test system: BaF3; assay: cells; type: functional, cell-based; conditions: Mus musculus, BaF3, 72 h
Description: Antiproliferative activity against mouse BaF3 cells harboring FLT3 ITD/N676D mutant assessed as inhibition of cell growth incubated for 72 hrs

[9] = test system: BaF3; assay: Antiproliferative activity against mouse BaF3 cells harboring FLT3 D835V mutant assessed as inhibition of cell growth incubated for 72 hrs; type: functional, cell-based; conditions: BaF3, 72 h
[10] = Cytotoxicity against mouse BaF3 cells assessed as inhibition of cell growth incubated for 72 hrs; type: toxicity, cell-based
[11] = Cytotoxicity against human PBMC cells assessed as inhibition of cell growth; type: toxicity, cell-based
[12] = biological target: Receptor-type tyrosine-protein kinase FLT3 (Homo sapiens, UniProt P36888, D835H); assay: Binding affinity to FLT3 D835H mutant (unknown origin)
[13] = test system: NCI-H460; assay: Antiproliferative activity against human NCI-H460 cells assessed as inhibition of cell growth; type: functional
[14] = biological target: Cyclin-dependent kinase 2 (Homo sapiens, UniProt P24941); assay: Inhibition of human CDK2 pretreated for 20 mins followed by [gamma-33P]-ATP addition and measured after 120 mins in presence of 10 uM ATP by radiometric Hot-SpotSM Kinase assay
[15] = Clearance in human liver microsomes measured per mg protein by LC-MS/MS analysis; type: ADME, Microsome; conditions: read-out: CLH
[16] = test system: MV4-11; assay: animal or person; type: functional, Homo sapiens; conditions: Mus musculus, MV4-11, 336 h, route po, time 2 weeks
Description: Antitumor activity against human MV4-11 cells xenografted in nu/nu mouse assessed as inhibition of tumor growth at 50 mg/kg, po qd for 2 weeks by vernier caliper analysis

[17] = biological target: CDK4/Cyclin D3 (Homo sapiens) (UniProt P11802+P30281); assay: Inhibition of CDK4/Cyclin D3 (unknown origin); type: protein-complex assay; conditions: concentration not given here
[18] = Cmax in rat at 10 mg/kg, po; type: ADME, organism-based; parameters: dose 10 mg/kg, route po; conditions: in vivo
[19] = biological target: T1, Receptor-type tyrosine-protein kinase FLT3 (Homo sapiens, UniProt P36888); assay: Inhibition of human FLT3 using EAIYAAPFAKKK and [gamma-33P]-ATP as substrate pretreated for 20 mins followed by [gamma-33P]-ATP addition and measured after 120 mins in presence of 10 uM ATP by radiometric Hot-SpotSM Kinase assay
T1 sequence (P36888 whole entry): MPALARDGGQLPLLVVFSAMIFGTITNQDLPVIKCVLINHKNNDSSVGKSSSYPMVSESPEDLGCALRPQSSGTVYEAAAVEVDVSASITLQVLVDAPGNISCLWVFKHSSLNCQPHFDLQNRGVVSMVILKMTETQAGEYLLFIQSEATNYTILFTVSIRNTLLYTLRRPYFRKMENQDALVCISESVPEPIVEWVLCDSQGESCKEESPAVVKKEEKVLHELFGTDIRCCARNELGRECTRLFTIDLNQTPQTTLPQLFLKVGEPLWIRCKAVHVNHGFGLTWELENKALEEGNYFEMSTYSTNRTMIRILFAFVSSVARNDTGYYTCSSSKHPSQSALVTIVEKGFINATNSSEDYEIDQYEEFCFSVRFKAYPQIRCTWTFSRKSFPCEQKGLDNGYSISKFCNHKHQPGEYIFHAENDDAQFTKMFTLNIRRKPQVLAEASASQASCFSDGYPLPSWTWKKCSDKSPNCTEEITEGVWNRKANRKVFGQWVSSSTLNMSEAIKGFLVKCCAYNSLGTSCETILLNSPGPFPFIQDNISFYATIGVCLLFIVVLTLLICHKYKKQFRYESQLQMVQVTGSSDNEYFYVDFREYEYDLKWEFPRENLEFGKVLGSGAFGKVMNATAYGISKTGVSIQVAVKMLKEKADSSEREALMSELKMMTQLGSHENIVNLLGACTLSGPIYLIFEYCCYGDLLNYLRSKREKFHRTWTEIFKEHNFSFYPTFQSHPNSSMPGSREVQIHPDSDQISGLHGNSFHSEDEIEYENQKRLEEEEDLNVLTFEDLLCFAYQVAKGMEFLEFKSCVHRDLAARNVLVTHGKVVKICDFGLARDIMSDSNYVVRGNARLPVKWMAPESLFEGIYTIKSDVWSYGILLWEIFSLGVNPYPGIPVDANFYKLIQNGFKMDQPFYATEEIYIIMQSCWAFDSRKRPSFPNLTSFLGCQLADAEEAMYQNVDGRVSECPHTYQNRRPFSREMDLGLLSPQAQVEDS

[20] = test system: MV4-11; assay: Antitumor activity against human MV4-11 cells xenografted in nu/nu mouse assessed as inhibition of tumor growth at 25 mg/kg, po qd for 2 weeks by vernier caliper analysis; type: functional; conditions: MV4-11, 336 h
[21] = Half life in rat at 10 mg/kg, po; type: ADME, organism-based; conditions: in vivo
[22] = biological target: Receptor-type tyrosine-protein kinase FLT3 (Homo sapiens, UniProt P36888, D835V/ITD); assay: Binding affinity to FLT3 ITD/D835V mutant (unknown origin)

IC50 [1]: 15 nM | GI50 [2]: < 1000 nM | inhibition [4]: Active | IC50 [5]: 904 nM | inhibition [6]: 80.9% | AUC(0-t) [7]: 762 ng·h/mL | IC50 [8]: 54 nM | IC50 [9]: 43 nM | Kd [12]: 48.5 nM | GI50 [13]: < 1000 nM | IC50 [14]: 98.3 nM | microsomal CLint [15]: 7.4 µL/min/mg | inhibition [17]: 79.2% | Cmax [18]: 144 ng/mL | IC50 [19]: 0.62 nM | half-life [21]: 3.5 h | Kd [22]: 0.58 nM
SMILES: O=C(Nc1ccc(N2CCNCC2)cc1)c1n[nH]cc1Nc1cc(Oc2ccccc2)ncn1
GI50 [3]: < 1000 nM | IC50 at 72 h [10]: 2920 nM | IC50 [11]: 831 nM | inhibition in vivo at 50 mg/kg [16]: 94% | inhibition in vivo at 25 mg/kg [20]: 94.2%
